Experimental data reported in patent US10457688B2, “Monocyclic thieno, pyrido, and pyrrolo pyrimidine compounds and methods of use and manufacture of same” (Duquesne University of the Holy Spirit, priority 2015, dated 2019).
Where two headings read alike, the source gives them in different places.

Key:
[1] = system: RT16 CHO cells expressing human FRα; settings: cited from earlier work
[2] = system: cellular microtubules in A-10 cells; test: cellular microtubule depolymerization, cell-based phenotypic assay; settings: Rattus norvegicus
[3] = system: MDA-MB-435 cancer cells; test: antiproliferative sulforhodamine B assay (SRB assay), MDA-MB-435; format: cell-based; settings: Homo sapiens
[4] = system: KB human tumor cells (RFC/FRα/PCFT); test: growth inhibition, KB tumor cells; format: cell-based
Source text: The experiments with the CHO sublines were extended to KB human nasopharengeal carcinoma cells which express highly elevated FRα, along with RFC and PCFT.

[5] = system: R2(VC) CHO cells (transporter-null); test: growth inhibition, vector control R2(VC) CHO cells; format: cell-based, Chinese hamster; settings: Cricetulus griseus, Section IV Table 1
[6] = system: PC43-10 CHO cells expressing human RFC; test: growth inhibition, CHO PC43-10 (human RFC); format: cell-based, Chinese hamster
[7] = system: RT16 CHO cells expressing human FRα; test: growth inhibition, CHO RT16 (FRα); format: cell-based, Chinese hamster
[8] = system: D4 CHO cells expressing FRβ; test: growth inhibition, CHO D4 (FRβ); format: cell-based, Chinese hamster
[9] = system: R2/PCFT4 CHO cells expressing human PCFT; test: growth inhibition, CHO R2/PCFT4 (PCFT); format: cell-based, Chinese hamster; settings: Section III Table 1
[10] = A10, Section VII Table 1, read-out: EC50 for Microtubule Depolymerization in A-10 Cells
[11] = A10, Section VII Table 2, read-out: EC50 in A-10 cells (Tubulin polymerization inhibitory activity)
[12] = MDA-MB-435, Section VII Table 2, read-out: IC50 ± SD (MDA-MB-435) Tumor cells
[13] = Section VII Table 1, read-out: IC50 ± SD in MDA-435 Cells
[14] = A10, Section VIII Table 1, read-out: EC50 in A-10 cells (Loss of cellular microtubules)
[15] = MDA-MB-435, Section VIII Table 1, read-out: IC50 + SD (MDA-MB-435) cancer cells
[16] = A10, read-out: EC50 in A-10 cells (Loss of cellular microtubules)
[17] = Section IV Table 1, +FA, read-out: RT16 (+FA) IC50
[18] = Section IV Table 1, read-out: RT16 IC50 (FRα)
[19] = Section IV Table 1, +FA, read-out: KB (+FA) IC50
[20] = Section IV Table 1, read-out: KB IC50 (RFC/FRα/PCFT)
[21] = MDA-MB-435, read-out: IC50 ± SD (MDA-MB-435) Tumor cells
[22] = read-out: IC50 ± SD in MDA-435 Cells
[23] = A10, read-out: EC50 for Microtubule Depolymerization in A-10 Cells
[24] = A10, read-out: EC50 in A-10 cells (Tubulin polymerization inhibitory activity)
[25] = Homo sapiens, PC43-10, Section III Table 1

## Nc1nc2[nH]c(CCCc3ccc(C(=O)N[C@@H](CCC(=O)O)C(=O)O)cc3)cc2c(=O)[nH]1 [AGF17]
[1]
  selectivity for FR transport over RFC: 25 fold

## COc1ccc2c(c1)CCCN2c1nc(C)nc2ccsc12 [Compound 7]
[2]; [10]
  EC50: 8 nM
[2]; [11]
  EC50: 8 nM
[3]; [12]
  IC50: 3.4 ± 0.9 nM
[3]; [13]
  IC50: 3.4 ± 0.9 nM
[4]; Homo sapiens, Section VI Table 1, read-out: KB IC50 (FRα/PCFT/RFC)
  IC50: 38.9 nM

## CSc1ccc(Nc2nc(C)nc3cc[nH]c23)cc1 [compound 3]
[2]; [10]
  EC50: 25000 nM
[2]; [11]
  EC50: 25000 nM
[3]; [12]
  IC50: 2100 ± 70 nM
[3]; [13]
  IC50: 2100 ± 70 nM

## COc1cccc2cc(N(C)c3nc(C)nc4sccc34)ccc12 [Compound 6]
[2]; [14]
  EC50: 2.5 nM
[3]; [15]
  IC50: 3.8 nM

## CN(Cc1cnc2nc(N)nc(N)c2n1)c1ccc(C(=O)N[C@@H](CCC(=O)O)C(=O)O)cc1 [MTX, methotrexate, reference compound]
[5]
  IC50: > 1000 nM

## CSc1ccc(N(C)c2nc(C)nc3sc(C)c(C)c23)cc1 [Compound 9]
[2]; [14]
  EC50: 128 nM
[3]; [15]
  IC50: 34.8 ± 3.7 nM

## CSc1ccc(Nc2nc(C)nc3sccc23)cc1 [compound 2]
[2]; [16]
  EC50: > 10000 nM

## COc1ccc(N(C)c2nc(C)nc3cc[nH]c23)cc1 [compound 1]
[3]; [12]
  IC50: 96.6 ± 5.3 nM
[3]; [13]
  IC50: 96.6 nM

## COc1ccc2c(c1)OCCN2c1nc(C)nc2ccsc12 [Compound 9]
[2]; [10]
  EC50: 237 nM
[2]; [11]
  EC50: 237 nM
[3]; [13]
  IC50: 109 nM

## Nc1nc2[nH]c(CCOc3cccc(C(=O)N[C@@H](CCC(=O)O)C(=O)O)c3)cc2c(=O)[nH]1 [AGF220]
[6]; Section IV Table 1
  IC50: > 1000 nM
[7]; [17]
  IC50: > 1000 nM
[7]; [18]
  IC50: 30.3 nM
[4]; [19]
  IC50: > 1000 nM
[4]; [20]
  IC50: 13.1 nM

## CSc1ccc2c(c1)CCCN2c1ncnc2ccsc12 [Compound 8]
[2]; [10]
  EC50: 22 nM
[2]; [11]
  EC50: 22 nM
[3]; [12]
  IC50: 3.8 ± 0.3 nM
[3]; [13]
  IC50: 3.8 ± 0.3 nM

## COc1cccc2cc(N(C)c3ncnc4ccsc34)ccc12 [Compound 11]
[2]; [10]
  EC50: 61 nM
[3]; [21]
  IC50: 15.7 ± 2.2 nM
[3]; [22]
  IC50: 15.7 ± 2.2 nM

## COc1ccc(Nc2nc(C)nc3sc(C)c(C)c23)cc1 [Compound 7]
[2]; [14]
  EC50: > 10000 nM

## COc1cccc2cc(N(C)c3nc(C)nc4ccsc34)ccc12 [Compound 10]
[2]; [10]
  EC50: 3 nM
[2]; [11]
  EC50: 3 nM
[3]; [12]
  IC50: 1.7 ± 0.2 nM
[3]; [13]
  IC50: 1.7 ± 0.2 nM

## COc1ccc2c(c1)OCCN2c1nc(C)nc2sc(C)c(C)c12 [Compound 11]
[2]; [14]
  EC50: 1200 nM

## COc1ccc2c(c1)CCCN2c1nc(C)nc2sc(C)c(C)c12 [Compound 10]
[2]; [14]
  EC50: > 10000 nM

## COc1ccc(N(C)c2nc(C)nc3ccsc23)cc1 [compound 2]
[2]; [23]
  EC50: 27 nM
[2]; [24]
  EC50: 27 nM
[3]; [21]
  IC50: 7 ± 2.7 nM
[3]; [22]
  IC50: 7 ± 2.7 nM

## COc1ccc(N(C)c2nc(C)nc3sc(C)c(C)c23)cc1 [Compound 8]
[2]; [14]
  EC50: 18 nM
[3]; [15]
  IC50: 10.7 ± 1 nM

## CSc1ccc(N(C)c2nc(C)nc3cc[nH]c23)cc1 [Compound 4]
[7]; Cricetulus griseus, RT16, read-out: R16 IC50 (FRα)
  IC50: 1.72 nM
[2]; [23]
  EC50: 42 nM
[2]; [16]
  EC50: 10 nM
[2]; [24]
  EC50: 42 nM
[3]; MDA-MB-435, read-out: IC50 + SD (MDA-MB-435) cancer cells
  IC50: 4 ± 0.5 nM
[3]; [21]
  IC50: 4.4 ± 0.2 nM
[3]; [22]
  IC50: 4.4 ± 0.2 nM
[4]; Homo sapiens, read-out: KB IC50 (FRα/PCFT/RFC)
  IC50: 6.13 nM
[8]; Cricetulus griseus, CHO, read-out: D4 IC50 (FRβ)
  IC50: 6.11 nM

## Nc1nc2[nH]cc(CCc3ccc(C(=O)N[C@@H](CCC(=O)O)C(=O)O)cc3)c2c(=O)[nH]1 [PMX, pemetrexed, reference compound]
[6]; [25]
  IC50: 30.6 nM
[4]; Homo sapiens, Section III Table 1, read-out: KB IC50 (RFC/FRα/PCFT)
  IC50: 9.94 nM

## Nc1nc2[nH]c(CCNc3cccc(C(=O)N[C@@H](CCC(=O)O)C(=O)O)c3)cc2c(=O)[nH]1 [AGF256]
[6]; Section IV Table 1
  IC50: > 1000 nM
[7]; [17]
  IC50: > 1000 nM
[7]; [18]
  IC50: 15.9 nM
[4]; [19]
  IC50: > 1000 nM
[4]; [20]
  IC50: 14.8 nM
[8]; Section IV Table 1, +FA, read-out: D4 (+FA) IC50
  IC50: > 1000 nM
[8]; Section IV Table 1, read-out: D4 IC50 (FRβ)
  IC50: 4.19 nM

## COc1ccc(N(C)c2nc(C)nc3sccc23)cc1 [compound 3]
[2]; [14]
  EC50: 15.4 nM
[3]; [15]
  IC50: 7.6 nM

## Cc1nc2ccc(CN(C)c3ccc(C(=O)N[C@@H](CCC(=O)O)C(=O)O)s3)cc2c(=O)[nH]1 [RTX, raltitrexed]
[5]
  IC50: > 1000 nM

## CSc1ccc(N(C)c2ncnc3ccsc23)cc1 [Compound 6]
[9]
  IC50: 8.23 nM
[6]; [25]
  IC50: 207 nM
[2]; [10]
  EC50: 707 nM
[2]; [11]
  EC50: 707 nM
[3]; [12]
  IC50: 28.2 ± 5.5 nM
[3]; [13]
  IC50: 28.2 ± 5.5 nM
